Reference: patent publication US10106580B2, “Enopeptins, uses thereof, and methods of synthesis thereto” (Brown University, priority 2011, dated 2018)
Values after ≈ are worked out from the molar mass of the structure shown. Numbered stars: 1 amine (or outer) side, 2 acyl side, 3 side chain; on linkers, the order of the positions; unused ones are H or OH. Bridge positions count the residues as written; N and C are the ends. Square brackets hold non-standard residues; d marks the D form. Peptide text beside a SMILES is read from it. * marks the point of attachment. Phe(3-F) = N[C@@H](Cc1cccc(F)c1)C(=O)O; X2 = CC1CCN([*:1])[C@@H](C(=O)[*:2])C1; X1 = CC1CCN([*:1])[C@H](C(=O)[*:2])C1; X3 = CCC(CC)(C(=O)[*:2])N(C)[*:1]; Heptenoyl(2E) = CCCC/C=C/C(=O)*; NMeAc6c = CNC1(C(=O)O)CCCCC1; NMeAc5c = CNC1(C(=O)O)CCCC1; NMeAc4c = CNC1(C(=O)O)CCC1

Assays:
[1] = tested on: Methicillin-susceptible S. aureus (ATCC 35556); experiment: Broth dilution MIC/MBC vs methicillin-susceptible S. aureus; format: cell-based, Staphylococcus aureus; conditions: for MIC / MBC: Staphylococcus aureus, ATCC 35556 / MSSA, MSSA (ATCC 35556); for MBC: 99.9% kill after 24 h
From the text: (§1) The naturally occurring enopeptins and the synthetic derivative ADEP 4 are reported to have strong antibacterial activity (see, e.g., Hinzen et al., Chem Med Chem 2006, 1, 689). Broth dilution assays were used to determine the MICs of the acyldepsipeptide derivatives 10a-h against both ATCC strains and clinical isolates of S. epidermis, S. aureus, and Enterococci obtained from patients of the Veterans Affairs Medical Center in Providence, R.I. Clinical isolates were included to gain a better indication of the potential of these new antibacterial agents (see, e.g., Clinical and Laboratory Standard Institute (CLSI) Methods for dilution antimicrobial susceptibility tests for bacteria that grow aerobically M07-A8; CLSI 8th ed., Wayne, Pa., 2009; Clinical Laboratory Standards Institute (CLSI) Performance standards for antimicrobial susceptibility testing M100-S19. CLSI 19th informational suppl., Wayne, Pa. 2009). In the interest of assessing the cell-killing ability of these compounds, the minimal bactericidal concentrations (MBC) of the compounds was also determined against the aformentioned strains. The MIC was defined as the lowest concentration of an antimicrobial agent visually inhibiting more than 99% of the colonies.
(§2) Minimum inhibitory concentrations (MIC) were determined in duplicate using methods outlined by The Clinical and Laboratory Standards Institute. Compounds were dissolved in DMSO and fresh cation-adjusted Mueller-Hinton broth (SMHB; Difco Laboratories, Sparks, Md., USA; 25 μg/mL calcium and 12.5 μg/mL magnesium) was used to dilute antimicrobial agents in a serial 2-fold schedule. Colony counts for the inoculum verification was determined using Tryptic Soy Agar plates (TSA, Difco, Becton Dickinson Co., Sparks, Md., USA). Following incubation, 100 μL of broth was subcultured onto TSA for MBC determination. MIC and MBC determination can be found in Table 2 and 3. Control isolates were obtained from the American Type Culture Collection (ATCC) and were as follows: Methicillin-resistant S. epidermidis (MRSE ATCC 35984); MSSA (ATCC 35556) and, VRE (ATCC 2030).

[2] = tested on: Methicillin-resistant S. aureus (clinical isolate from blood); experiment: Broth dilution MIC/MBC vs methicillin-resistant S. aureus; format: cell-based; conditions: Staphylococcus aureus, MRSA (clinical isolate from blood); for MBC: 99.9% kill after 24 h
From the text: as §1, §2

[3] = tested on: Enterococcus faecalis (ATCC 29212); experiment: Broth dilution MIC/MBC vs E. faecalis ATCC strain; format: cell-based; conditions: ATCC29212, EF^1: E. faecalis (ATCC 29212)
From the text: as §1, §2

[4] = tested on: Enterococcus faecalis (clinical isolate from rectal swab); experiment: Broth dilution MIC/MBC vs E. faecalis clinical isolate; format: cell-based; conditions: EF^2: E. faecalis (clinical isolate from rectal swab)
From the text: as §1, §2

[5] = tested on: Vancomycin-resistant Enterococcus faecium (clinical isolate obtained from tissue); experiment: Broth dilution MIC/MBC vs vancomycin-resistant E. faecium; format: cell-based; conditions: VRE
From the text: as §1, §2

[6] = tested on: Vancomycin-resistant Enterococcus faecalis (clinical isolate from rectal swab); experiment: Broth dilution MIC/MBC vs vancomycin-resistant E. faecalis; format: cell-based; conditions: VRE
From the text: as §1, §2

[7] = tested on: Staphylococcus epidermis (ATCC 25984); experiment: Broth dilution MIC/MBC vs Staphylococcus epidermis; format: cell-based; conditions: ATCC25984
From the text: as §1, with “The MIC was defined as the lowest concentration of an antimicrobial agent visually inhibiting more than 99% of the colonies.” left out
(§3) Minimum inhibitory concentrations (MIC) were determined in duplicate using methods outlined by The Clinical and Laboratory Standards Institute. […] Colony counts for the inoculum verification was determined using Tryptic Soy Agar plates (TSA, Difco, Becton Dickinson Co., Sparks, Md., USA). […]

S. aureus strains = experiment: Antibacterial activity vs S. aureus strains, stated in words; format: cell-based, Staphylococcus aureus
From the text: as §1, with “The MIC was defined as the lowest concentration of an antimicrobial agent visually inhibiting more than 99% of the colonies.” left out
as §3

[8] = tested on: E. faecalis and vancomycin-resistant E. faecium; experiment: Antibacterial activity vs panel of pathogenic Enterococci, stated in words; format: cell-based; conditions: against E. faecalis and vancomycin-resistant E. faecium
From the text: as §1, with “The MIC was defined as the lowest concentration of an antimicrobial agent visually inhibiting more than 99% of the colonies.” left out
as §3

| Structure (SMILES) | MIC [1] [µg/mL] | MIC [2] [µg/mL] | MBC [1] [µg/mL] | MBC [2] [µg/mL] | MBC [3] [µg/mL] | MIC [3] [µg/mL] | MBC [4] [µg/mL] | MIC [4] [µg/mL] | MBC [5] [µg/mL] | MIC [5] [µg/mL] | MBC [6] [µg/mL] | MIC [6] [µg/mL] | MBC [7] [µg/mL] | MIC [7] [µg/mL] | antibacterial activity (S. aureus strains) | antibacterial activity compared with compound 10a ([1]; against MSSA, in words) | antibacterial activity compared with compound 10a [8] |
| --- | --- | --- | --- | --- | --- | --- | --- | --- | --- | --- | --- | --- | --- | --- | --- | --- | --- |
| CCCC/C=C/C(=O)N[C@@H](Cc1cccc(F)c1)C(=O)N[C@H]1COC(=O)[C@@H]2CCCN2C(=O)[C@H](C)NC(=O)[C@@H]2CCCCN2C(=O)[C@@H]2CCCN2C1=O [Compound 10a] | 1.25 (≈ 1.69 µM) | 1.25 (≈ 1.69 µM) | 1.25 (≈ 1.69 µM) | 1.25 (≈ 1.69 µM) | 1.25 (≈ 1.69 µM) | 0.16 (≈ 0.217 µM) | 0.04 (≈ 0.0541 µM) | 0.04 (≈ 0.0541 µM) | 0.08 (≈ 0.108 µM) | 0.08 (≈ 0.108 µM) | 0.04 (≈ 0.0541 µM) | 0.04 (≈ 0.0541 µM) | 1.25 (≈ 1.69 µM) | 1.25 (≈ 1.69 µM) | exhibited the expected antibacterial activity | – | – |
| CCCC/C=C/C(=O)N[C@@H](Cc1cccc(F)c1)C(=O)N[C@H]1COC(=O)[C@@H]2CCCN2C(=O)[C@H](C)NC(=O)[C@H]2CCCCN2C(=O)[C@@H]2CCCN2C1=O [Compound 10b] | > 312 | > 312 | > 312 | > 312 | – | – | – | – | – | – | – | – | – | – | – | – | – |
| CCCC/C=C/C(=O)N[C@@H](Cc1cccc(F)c1)C(=O)N[C@H]1COC(=O)[C@@H]2CCCN2C(=O)[C@H](C)NC(=O)[C@@H]2CC(C)CCN2C(=O)[C@@H]2CCCN2C1=O (some centres unmarked) [Compound 10c] ({Heptenoyl(2E)}-[Phe(3-F)]SP[X1]AP; ester 2-C) | 0.6 (≈ 0.797 µM) | 0.6 (≈ 0.797 µM) | 0.6 (≈ 0.797 µM) | 2.4 (≈ 3.19 µM) | 0.08 (≈ 0.106 µM) | 0.04 (≈ 0.0531 µM) | 0.04 (≈ 0.0531 µM) | 0.02 (≈ 0.0266 µM) | 0.08 (≈ 0.106 µM) | 0.04 (≈ 0.0531 µM) | 0.04 (≈ 0.0531 µM) | 0.04 (≈ 0.0531 µM) | – | – | – | better activity than compound 10a | more potent activity |
| CCCC/C=C/C(=O)N[C@@H](Cc1cccc(F)c1)C(=O)N[C@H]1COC(=O)[C@@H]2CCCN2C(=O)[C@H](C)NC(=O)[C@H]2CC(C)CCN2C(=O)[C@@H]2CCCN2C1=O (some centres unmarked) [Compound 10d] ({Heptenoyl(2E)}-[Phe(3-F)]SP[X2]AP; ester 2-C) | > 156 | > 156 | > 156 | 0.156 (≈ 0.207 µM) | – | – | – | – | – | – | – | – | – | – | – | – | – |
| CCCC/C=C/C(=O)N[C@@H](Cc1cccc(F)c1)C(=O)N[C@H]1COC(=O)[C@@H]2CCCN2C(=O)[C@H](C)NC(=O)C(CC)(CC)N(C)C(=O)[C@@H]2CCCN2C1=O [Compound 10e] ({Heptenoyl(2E)}-[Phe(3-F)]SP[X3]AP; ester 2-C) | 78.1 (≈ 103 µM) | > 312 | > 312 | > 312 | – | – | – | – | – | – | – | – | – | – | – | – | – |

More lines, main results first:

| MIC [1] [µg/mL] | MIC [2] [µg/mL] | Structure (SMILES) | MBC [1] [µg/mL] | MBC [2] [µg/mL] | MBC [3] [µg/mL] | MIC [3] [µg/mL] | MBC [4] [µg/mL] | MIC [4] [µg/mL] | MBC [5] [µg/mL] | MIC [5] [µg/mL] | MBC [6] [µg/mL] | MIC [6] [µg/mL] | MBC [7] [µg/mL] | MIC [7] [µg/mL] | antibacterial activity (S. aureus strains) | antibacterial activity compared with compound 10a ([1]; against MSSA, in words) | antibacterial activity compared with compound 10a [8] |
| --- | --- | --- | --- | --- | --- | --- | --- | --- | --- | --- | --- | --- | --- | --- | --- | --- | --- |
| 312 (≈ 422 µM) | > 312 | CCCC/C=C/C(=O)N[C@@H](Cc1cccc(F)c1)C(=O)N[C@H]1COC(=O)[C@@H]2CCCN2C(=O)[C@H](C)NC(=O)C2(CCC2)N(C)C(=O)[C@@H]2CCCN2C1=O [Compound 10f] ({Heptenoyl(2E)}-[Phe(3-F)]SP[NMeAc4c]AP; ester 2-C) | > 312 | > 312 | – | – | – | – | – | – | – | – | – | – | – | – | – |
| 39.1 (≈ 51.9 µM) | > 312 | CCCC/C=C/C(=O)N[C@@H](Cc1cccc(F)c1)C(=O)N[C@H]1COC(=O)[C@@H]2CCCN2C(=O)[C@H](C)NC(=O)C2(CCCC2)N(C)C(=O)[C@@H]2CCCN2C1=O [Compound 10g] ({Heptenoyl(2E)}-[Phe(3-F)]SP[NMeAc5c]AP; ester 2-C) | > 312 | > 312 | – | – | – | – | – | – | – | – | – | – | – | – | – |
| 39.1 (≈ 51 µM) | > 312 | CCCC/C=C/C(=O)N[C@@H](Cc1cccc(F)c1)C(=O)N[C@H]1COC(=O)[C@@H]2CCCN2C(=O)[C@H](C)NC(=O)C2(CCCCC2)N(C)C(=O)[C@@H]2CCCN2C1=O [Compound 10h] ({Heptenoyl(2E)}-[Phe(3-F)]SP[NMeAc6c]AP; ester 2-C) | > 312 | > 312 | – | – | – | – | – | – | – | – | – | – | – | – | – |
